# Patent publication US6518317B1, “Antiviral agents” (priority 1997, dated 2003)
# Tests used:
# [1] = test system: CEM-SS cells infected by HIV-1IIIB (CEM-3B); test: Survival rate of HIV-infected T cells, CEM-3B; assay type: cell-based, human; details: three days
# Protocol: The cyclopentenone (1-5 μM) was added to CEM-SS cells infected by HIV-1IIIB (abbreviated as CEM-3B) or to H9 cells infected by HIV-1IIIB (abbreviated as H9-3B) and incubated for three days. In both cells, 90% or more of the cells were infected by HIV-1IIIB. Numbers of living and dead cells were counted and the survival rate of the cells was calculated therefrom.
# Thus, FIG. 3 and FIG. 4 are the graphs showing the relation between the concentration of the cyclopentenone added and the survival rate of the cells in which abscissa is the concentration (μM) of the cyclopentenone added While ordinate is the survival rate (%) of the cells after incubating for three days. FIG. 3 is the result when CEM-3B were used while FIG. 4 is the result when H9-3B were used.
# [2] = test system: CEM-SS cells; test: Survival rate of human T cells, CEM-SS; assay type: cell-based; details: 0.5-5 m M, three days
# [3] = test system: NIH3T3/Y-1; test: Colony formation of control-vector cell strain NIH3T3/Y-1; details: 5 μM, nine days, NIH3T3/Y-1, three runs
# [4] = test system: heat shock protein of 70 kDa; test: Induction of heat shock protein of 70 kDa in HL-60 cells (SDS-PAGE and blotting); assay type: cell-based, human; parameters: key to Induction of Heat Shock Proteins: +++: “+” indicates degree of intensity of induction and the more the numbers of “+”, the more the intensity of induction; ++: “+” indicates degree of intensity of induction and the more the numbers of “+”, the more the intensity of induction; “+” indicates degree of intensity of induction and the more the numbers of “+”, the more the intensity of induction; “±” means the induction was slight; “−” means that no induction was noted; details: for Induction of Heat Shock Proteins: HL-60 cells, eight hours
# Protocol: (1) An RPMI 1640 medium (5 ml) containing 10% of fetal bovine serum which contained 2×10^5 cells/ml of human promyelocytic leukemia cells HL-60 (ATCC CCL-240) was placed in each well of a six-well plate, incubated at 37° C. for 24 hours in the presence of 5% of CO2, then the cyclopentenone described in the referential example L was added thereto to make its final concentration 0, 10, 20, 30, 40, 50, or 100 μM and the incubation was further continued for eight hours more.
# After completion of the incubation, cell numbers were counted and the cells were recovered by centrifugation and washed with phosphate-buffered saline (PBS) to prepare cyclopentenone-treated cells. In the meanwhile, cells which were heated at 45° C. for ten minutes followed by subjecting to the same incubation were prepared as well.
# The cells treated as such were subjected to an SDS-polyacrylamid gel electrophoresis (SDS-PAGE) by a method mentioned in “Molecular Cloning” [Cold Spring Harbor Laboratory Press, (1989)]. The treated cells were suspended in an SDS-PAGE sample buffer to make the concentration 2.5×10^6 cells/ml, the resulting cell suspension was treated at 100° C. for ten minutes and each 5 μl thereof was applied to two sheets of SDS-PAGE gels (5% stacking gel; 10% separation gel) to conduct anelectrophoresis. One of the gels was Coomassie stained while another gel was subjected to a blotting to a polyvinylidene difluoride transfer membrane (Immobilon™, manufactured by Millipore, catalog no. IPVH000-10). The membrane was subjected to a blocking at 4° C. for one night with Block Ace (manufactured by Dainippon Pharmaceutical; catalog no. UK-B25).
# The blocked membrane was made to react with monoclonal antibody HSP 72/73 (Ab-1) (manufactured by Oncogene Research Products, catalog no. HSP01) which would specifically react with heat-induced heat shock protein of 70 kDa and washed with TBS containing 0.05% of Tween 20 followed by further washing with TBS. After that, it was made to react with peroxidase-compounded secondary antibody HRP-Rabbit Anti-Mouse IgG (H+L) (manufactured by Zymed Laboratories, catalog no. 61-6520) and washed by the same manner as in the above operation. The membranes which were treated with primary and secondary antibodies as such were made to react with Renaissance™ (a chemiluminor reagent manufactured by Dupont NEN, catalog no. NEL-100) and photosensitized with an X-ray film to confirm the induction of heat shock protein of 70 kDa.
# The result was that, by addition of cyclopentenone (20 to 30 μM), induction of heat shock protein of 70 kDa which is almost same as heat-treated at 45° C. for 10 minutes was confirmed. In Table 1, “+” indicates degree of intensity of induction and the more the numbers of “+”, the more the intensity of induction. Incidentally, “−” means that no induction was noted and “±” means the induction was slight.
# [5] = test system: adenovirus type 5 (Adenoid 75; ATCC VR-5); test: Adenovirus hexon protein in HeLa cells, cyclopentenone before and after infection; assay type: cell-based; details: 10 μM or more
# Protocol: (5) HeLa cells were incubated by the same manner as in Example 2-(2) and treated with the cyclopentenone. After that, the cells were infected by the adenovirus type 5 (Adenoid 75; ATCC VR-5) by the same manner as in Example 2-(4) and incubated in a medium to which the cyclopentenone was added. After the incubation, detection of the hexon proteins of adenovirus was conducted by the same manner as in Example 2-(2).
# [6] = test system: Ad5 dlX [an adenovirus]; test: Amount of viral DNA in HeLa cells treated before infection with adenovirus; assay type: cell-based; details: 5 μM or more
# Protocol: (3) Viral DNA was extracted according to a method mentioned in “Protocols for Experiments of Virus” (pages 24-25; published by Medical View) from the HeLa cells which were treated with the cyclopentenone and infected by adenovirus followed by incubation by the same manner as in Example 2-(2).
# Thus, cells infected by virus were washed with a saline solution buffered by phosphoric acid, suspended in 1 ml of aqueous solution of 0.6% sodium laurylsulfate (SDS) and 10 mM EDTA and 3.0 ml of 5M aqueous solution of sodium chloride was added thereto. The mixture was allowed to stand at 0° C. for one hour and centrifuged and 3 ml of ethanol was added to the resulting supernatant liquid followed by mixing. The precipitate obtained by centrifugal separation was dissolved in 0.2 ml of TE buffer (10 mM Tris-HCl of pH 8.0 and 1 mM EDTA), then 2 μl of 10% SDS and 4 μl of 10 mg/ml proteinase K (manufactured by Takara Shuzo) were added thereto and the mixture was kept at 37° C. for one hours. This was extracted with a mixture of equal amounts of phenol and chloroform twice, 20 μl of 3M sodium acetate and 400 μl of ethanol were added to the aqueous layer, the mixture was centrifuged and the precipitate was dissolved in 50 μl of the TE buffer to give a DNA solution. […]
smiles,measurement,setting,value
"O=C1C=CC(O)C1O (stereo not drawn) [cyclopentenone, 4,5-dihydroxy-2-cyclopenten-1-one]",survival rate of the cells,[1]; 3 μM,significantly decreased
same,survival rate of the cells,[1]; 5 μM,further decreased
same,survival rate of the cells,[2],no significant decrease
same,Numbers (average ± SD) of the Colonies,[3],71.3 ± 2.3
same,concentration at which the ability for inducing HSP70 becomes maximum,[4],20 to 30 µM
same,concentration at which the ability for inducing HSP70 is noted,[4],10 µM
same,Induction of Heat Shock Proteins,[4]; 10 μM,+
same,Induction of Heat Shock Proteins,[4]; 20 μM,+++
same,Induction of Heat Shock Proteins,[4]; 30 μM,+++
same,Induction of Heat Shock Proteins,[4]; 40 μM,++
same,Induction of Heat Shock Proteins,[4]; 50 μM,+
same,Induction of Heat Shock Proteins,[4]; 100 μM,±
same,ability inducing the HSP70 compared with prostaglandin A1,[4]; compared in molar concentration,equivalent
same,amount of the hexon proteins compared with the control,[5],apparent decrease
same,amount of viral DNA compared with the control,[6],apparent decrease
